Results as given in US12660819B2, “Herbicidal derivatives” (SYNGENTA CROP PROTECTION AG, priority 2020, dated 2026).

Key:
Format in all cases: in vivo
[1] = system: Amaranthus retoflexus (AMARE); test: Pre-emergence Test (glasshouse, percentage damage to the plant); settings: 1000 g/ha unless otherwise stated; for percentage damage to the plant, AMARE (five-point scale): Amaranthus retoflexus
[2] = system: Echinochloa crus-galli (ECHCG); test: as above; settings: 1000 g/ha unless otherwise stated; for percentage damage to the plant, ECHCG (five-point scale): Echinochloa crus-galli
[3] = system: Amaranthus retoflexus (AMARE); test: Post-emergence Test (glasshouse, percentage damage to the plant); settings: 1000 g/ha unless otherwise stated, evaluated after 13 days; for AMARE, percentage damage caused to the plant (five-point scale): post-emergence
In short: (§1)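 Rate 1000 g/ha unless stated otherwise. Vehicle: acetone/water 50:50 with 0.5% Tween 20, diluted into aqueous spray. Timing: spray after sowing, read 13 days later. Score: 5=81-100%, 4=61-80%, 3=41-60%, 2=21-40%, 1=0-20% damage.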

[4] = system: Setaria faberi (SETFA); test: as above; settings: 1000 g/ha unless otherwise stated, evaluated after 13 days; for SETFA, percentage damage caused to the plant (five-point scale): post-emergence
In short: (§2)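 Scored 13 days after spraying as percentage plant damage in five bands (5=81–100%, 4=61–80%, 3=41–60%, 2=21–40%, 1=0–20%). Spray at 1000 g/ha unless stated, in acetone/water 50:50 plus 0.5% Tween 20, onto sown glasshouse pots (24/16 °C, 14 h light, 65% humidity).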

[5] = system: Amaranthus palmeri (AMAPA); test: as above; settings: 1000 g/ha unless otherwise stated, evaluated after 13 days; for AMAPA, percentage damage caused to the plant (five-point scale): post-emergence
In short: as §1

[6] = system: Zea mays (ZEAMX); test: as above; settings: 1000 g/ha unless otherwise stated, evaluated after 13 days; for ZEAMX, percentage damage caused to the plant (five-point scale): post-emergence
In short: as §2

[7] = system: Echinochloa crus-galli (ECHCG); test: as above; settings: 1000 g/ha unless otherwise stated, evaluated after 13 days; for ECHCG, percentage damage caused to the plant (five-point scale): post-emergence
In short: as §1

[8] = system: Ipomoea hederacea (IPOHE); test: as above; settings: 1000 g/ha unless otherwise stated, evaluated after 13 days; for IPOHE, percentage damage caused to the plant (five-point scale): post-emergence
In short: as §2

[9] = system: Amaranthus palmeri (AMAPA); test: Pre-emergence Test (glasshouse, percentage damage to the plant); settings: 1000 g/ha unless otherwise stated; for percentage damage to the plant, AMAPA (five-point scale): Amaranthus palmeri
[10] = system: Zea mays (ZEAMX); test: as above; settings: 1000 g/ha unless otherwise stated; for percentage damage to the plant, ZEAMX (five-point scale): Zea mays
[11] = system: Setaria faberi (SETFA); test: as above; settings: 1000 g/ha unless otherwise stated; for percentage damage to the plant, SETFA (five-point scale): Setaria faberi
[12] = system: Ipomoea hederacea (IPOHE); test: as above; settings: 1000 g/ha unless otherwise stated; for percentage damage to the plant, IPOHE (five-point scale): Ipomoea hederacea

| SMILES | percentage damage to the plant, AMARE (five-point scale) [1] | percentage damage to the plant, ECHCG (five-point scale) [2] | AMARE, percentage damage caused to the plant (five-point scale) [3] | SETFA, percentage damage caused to the plant (five-point scale) [4] | AMAPA, percentage damage caused to the plant (five-point scale) [5] | ZEAMX, percentage damage caused to the plant (five-point scale) [6] | ECHCG, percentage damage caused to the plant (five-point scale) [7] | IPOHE, percentage damage caused to the plant (five-point scale) [8] | percentage damage to the plant, AMAPA (five-point scale) [9] | percentage damage to the plant, ZEAMX (five-point scale) [10] | percentage damage to the plant, SETFA (five-point scale) [11] | percentage damage to the plant, IPOHE (five-point scale) [12] | further results |
| --- | --- | --- | --- | --- | --- | --- | --- | --- | --- | --- | --- | --- | --- |
| CCn1c(C)c(-c2ccc(F)cc2OC)c(=O)c(C(=O)OC)c1-c1ccc(Cl)c(Cl)c1 [Compound 163, methyl 2-(3,4-dichlorophenyl)-1-ethyl-5-(4-fluoro-2-methoxy-phenyl)-6-methyl-4-oxo-pyridine-3-carboxylate] |  |  |  |  |  |  |  |  |  |  |  |  | percentage damage to the plant, AMARE ([1]; five-point scale): 1 (1=0-20%); percentage damage to the plant, ECHCG ([2]; five-point scale): 0; Post-emergence Test AMARE, percentage damage to the plant (five-point scale) ([3]; post-emergence spray): 1 (1=0-20%); Post-emergence Test SETFA, percentage damage to the plant (five-point scale) ([4]; post-emergence spray): 0; Post-emergence Test AMAPA, percentage damage to the plant (five-point scale) ([5]; post-emergence spray): 2 (2=21-40%); Post-emergence Test ZEAMX, percentage damage to the plant (five-point scale) ([6]; post-emergence spray): 0; Post-emergence Test ECHCG, percentage damage to the plant (five-point scale) ([7]; post-emergence spray): 0; Post-emergence Test IPOHE, percentage damage to the plant (five-point scale) ([8]; post-emergence spray): 0; percentage damage to the plant, AMAPA ([9]; five-point scale): 1 (1=0-20%); percentage damage to the plant, ZEAMX ([10]; five-point scale): 1 (1=0-20%); percentage damage to the plant, SETFA ([11]; five-point scale): 0; percentage damage to the plant, IPOHE ([12]; five-point scale): 0 |
| CCn1c(C)c(-c2cc(C(F)(F)F)ccc2F)c(=O)c(C(=O)O)c1-c1ccc(Cl)c(Cl)c1 [Compound 206, 2-(3,4-dichlorophenyl)-1-ethyl-5-[2-fluoro-5-(trifluoromethyl)phenyl]-6-methyl-4-oxo-pyridine-3-carboxylic acid] | 2 (2=21-40%) | 2 (2=21-40%) | 4 (4=61-80%) | 4 (4=61-80%) | 4 (4=61-80%) | 1 (1=0-20%) | 2 (2=21-40%) | 2 (2=21-40%) | 4 (4=61-80%) | 0 | 5 (5=81-100%) | 3 (3=41-60%) |  |
| CCn1c(C)c(-c2ccc(F)cc2F)c(=O)c(C(=O)OC)c1-c1cnc(Cl)c(Cl)c1 [Compound 213, methyl 2-(5,6-dichloro-3-pyridyl)-5-(2,4-difluorophenyl)-1-ethyl-6-methyl-4-oxo-pyridine-3-carboxylate] | 0 | 0 |  | 0 | 3 (3=41-60%) | 1 (1=0-20%) | 0 | 1 (1=0-20%) | 0 | 0 | 0 | 0 |  |
| CCn1c(C)c(-c2ccc(C)cc2F)c(=O)c(C(=O)O)c1-c1ccc(Cl)c(Cl)c1 [Compound 236, 2-(3,4-dichlorophenyl)-1-ethyl-5-(2-fluoro-4-methyl-phenyl)-6-methyl-4-oxo-pyridine-3-carboxylic acid] | 1 (1=0-20%) | 3 (3=41-60%) | 5 (5=81-100%) | 2 (2=21-40%) | 5 (5=81-100%) | 2 (2=21-40%) |  | 5 (5=81-100%) | 2 (2=21-40%) | 1 (1=0-20%) | 4 (4=61-80%) | 4 (4=61-80%) |  |
| CCN(CC)S(=O)(=O)c1ccc(-c2c(C)n(CC)c(-c3ccc(Cl)c(Cl)c3)c(C(=O)O)c2=O)cc1 [Compound 237, 2-(3,4-dichlorophenyl)-5-[4-(diethylsulfamoyl)phenyl]-1-ethyl-6-methyl-4-oxo-pyridine-3-carboxylic acid] | 0 | 2 (2=21-40%) | 1 (1=0-20%) | 3 (3=41-60%) | 4 (4=61-80%) | 1 (1=0-20%) |  | 2 (2=21-40%) | 1 (1=0-20%) | 0 | 1 (1=0-20%) | 0 |  |
| CCn1c(C)c(-c2cccc(Oc3ccccc3)c2)c(=O)c(C(=O)O)c1-c1ccc(Cl)c(Cl)c1 [Compound 238, 2-(3,4-dichlorophenyl)-1-ethyl-6-methyl-4-oxo-5-(3-phenoxyphenyl) pyridine-3-carboxylic acid] | 0 | 0 | 3 (3=41-60%) | 1 (1=0-20%) | 4 (4=61-80%) | 1 (1=0-20%) |  | 1 (1=0-20%) | 0 | 0 | 0 | 0 |  |
| CCn1c(C)c(-c2ccc(S(C)(=O)=O)cc2F)c(=O)c(C(=O)O)c1-c1ccc(Cl)c(Cl)c1 [Compound 239, 2-(3,4-dichlorophenyl)-1-ethyl-5-(2-fluoro-4-methylsulfonyl-phenyl)-6-methyl-4-oxo-pyridine-3-carboxylic acid] | 1 (1=0-20%) | 5 (5=81-100%) | 4 (4=61-80%) | 4 (4=61-80%) | 3 (3=41-60%) | 2 (2=21-40%) |  | 2 (2=21-40%) | 1 (1=0-20%) | 0 | 5 (5=81-100%) | 1 (1=0-20%) |  |
| CCn1c(C)c(-c2cc(C)nn2C)c(=O)c(C(=O)O)c1-c1ccc(Cl)c(Cl)c1 [Compound 240, 2-(3,4-dichlorophenyl)-5-(2,5-dimethylpyrazol-3-yl)-1-ethyl-6-methyl-4-oxo-pyridine-3-carboxylic acid] | 0 | 3 (3=41-60%) | 3 (3=41-60%) | 4 (4=61-80%) | 4 (4=61-80%) | 1 (1=0-20%) |  | 4 (4=61-80%) | 0 | 0 | 5 (5=81-100%) | 1 (1=0-20%) |  |
| CCn1c(C)c(-c2ccnn2C)c(=O)c(C(=O)O)c1-c1ccc(Cl)c(Cl)c1 [Compound 241, 2-(3,4-dichlorophenyl)-1-ethyl-6-methyl-5-(2-methylpyrazol-3-yl)-4-oxo-pyridine-3-carboxylic acid] | 3 (3=41-60%) | 5 (5=81-100%) | 5 (5=81-100%) | 4 (4=61-80%) | 5 (5=81-100%) | 3 (3=41-60%) |  | 3 (3=41-60%) | 2 (2=21-40%) | 1 (1=0-20%) | 5 (5=81-100%) | 3 (3=41-60%) |  |
| CCn1c(C)c(-c2ccc(Cl)cc2F)c(=O)c(C(=O)OC)c1-c1cnc(Cl)c(Cl)c1 [Compound 282, methyl 5-(4-chloro-2-fluoro-phenyl)-2-(5,6-dichloro-3-pyridyl)-1-ethyl-6-methyl-4-oxo-pyridine-3-carboxylate] | 3 (3=41-60%) | 1 (1=0-20%) | 4 (4=61-80%) | 1 (1=0-20%) | 4 (4=61-80%) | 3 (3=41-60%) | 4 (4=61-80%) | 2 (2=21-40%) | 4 (4=61-80%) |  | 1 (1=0-20%) | 0 |  |
